Biological target: T1, SugR (Corynebacterium glutamicum, UniProt Q8NP85)
T1 construct: gene Cgl1931; expressed in E. coli ER2566 from pTYB1 (pLGI1, 777 bp sugR without stop codon) as C-terminal intein fusion, tag self-cleaved, no extra residues
T1 sequence (Q8NP85 1-259): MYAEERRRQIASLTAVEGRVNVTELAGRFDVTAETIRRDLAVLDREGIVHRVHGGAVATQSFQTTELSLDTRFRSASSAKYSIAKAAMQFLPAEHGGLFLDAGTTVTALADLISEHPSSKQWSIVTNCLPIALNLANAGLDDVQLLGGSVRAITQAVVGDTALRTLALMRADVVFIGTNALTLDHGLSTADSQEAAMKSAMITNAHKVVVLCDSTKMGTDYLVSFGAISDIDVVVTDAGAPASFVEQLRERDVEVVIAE
Assay: EMSA, release of SugR from Cy3-labelled DNA fragment I2
Assay type: binding
Settings: negative effector; 15 pmol SugR, 0.05 pmol DNA I2 (ptsI-cg2118 intergenic region), 1 mM MgCl2, pH 7.5, RT; threshold of effect, not an IC50

concentration needed for significant effect: > 10 mM
Compound: O=P(O)(O)OC[C@H]1OC(O)[C@H](O)[C@@H](O)[C@@H]1O (stereo partly shown) [G-6-P, glucose-6-phosphate]

Source: PMC2222622, “The DeoR-type transcriptional regulator SugR acts as a repressor for genes encoding the phosphoenolpyruvate:sugar phosphotransferase system (PTS) in Corynebacterium glutamicum” (BMC Molecular Biology, 2007)
